Active and inactive are the calls of the source. How the calls were made is not given here.
Test system: Trypanosoma brucei growth inhibition, luminescence
Assay: antitrypanosomal activity against T. brucei – luminescence (AID 1159562);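 further: parasites grew with compound for 24 h before the luminescence read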

Compound	IC50
O=C(N[C@H](CO)c1ccccc1)c1ccc(-c2c[nH]c3nccc(C(F)(F)F)c23)s1	0.4 µM
Cc1[nH]nc(C(F)(F)F)c1NC(=O)CCn1cc(Cl)c([N+](=O)[O-])n1	0.79 µM
Cc1nc2c(-c3cccs3)c(C)nn2c(NCCO)c1C	0.2 µM
O=C1CN(C2CCCc3c(OCc4ccncc4)cccc32)C(=O)N1C1CCCCC1 (centres undefined)	> 40 µM (inactive)
COc1cnc2ccc(=O)n(CCN3CCC(NC(=O)Cc4ccc(Cl)c(Cl)c4)CC3)c2c1	0.5 µM
COc1cc(-c2nc(N3CCOCC3)sc2-c2ccnc(NC3CCOCC3)n2)ccc1Cl	> 40 µM (inactive)
CN(Cc1nc2c(C(=O)N3CCN(Cc4ccccc4)CC3)cccc2[nH]1)C1CCCc2cccnc21 (centres undefined)	1 µM
CCCCn1nnnc1CSc1nc(C)cc(C)c1C#N	> 40 µM (inactive)
Clc1cc(Br)ccc1OCCCCn1ccnc1	20 µM
O=C(O)[C@H]1C[C@@H]1c1ccc(-c2ccc(CN(CCc3ccccn3)C(=O)C3CCC3)cc2)cc1	0.79 µM
c1ccc2c(CCOc3nccnc3-c3ccncc3)c[nH]c2c1	40 µM
Cc1nc(-c2ccncc2)ncc1C(C)NC(=O)c1ccc(Cl)s1 (centres undefined)	1 µM
Cc1cc(N(C)C)nc2ccc(Cc3cnc(N)nc3N)cc12	5 µM
Cn1nc([N+](=O)[O-])nc1Oc1ccc(C(=O)c2ccccc2)cc1	> 40 µM (inactive)
NC(=O)c1ccccc1Nc1nc(NC2CCCCC2)nc2[nH]ccc12	10 µM
N#Cc1cccc(CN2CCC(N(Cc3cccnc3)C(=O)c3cc(F)c(F)cc3F)CC2)c1	> 40 µM (inactive)
Cn1c(CN2CCN(c3ncc(C(F)(F)F)cc3Cl)CC2)nc2ccncc21	> 40 µM (inactive)
Cc1nn(C)c(Cl)c1CN(Cc1cccnc1)Cc1ccsc1	> 40 µM (inactive)
O=C(Cc1ccccc1)Nc1ccccc1C(=O)Nc1nccs1	0.25 µM
Cn1cc(CN2CCN(c3ccc4c(c3)CCN(C(=O)[C@H]3C[C@@H]3c3ccccc3)CC4)CC2)cn1	40 µM
NC(=O)c1cc(F)ccc1Nc1nc(NC2CCC(O)CC2)ncc1Br (centres undefined)	0.32 µM
CC(C)Nc1nc(Cl)nc2ccccc12	13 µM
COc1ccc(Nc2nc(-c3ccccn3)cc(N3CCCC(O)C3)n2)cc1 (centres undefined)	13 µM
Cc1ccccc1NS(=O)(=O)c1ccc2[nH]cc(C(=O)NC3CCCCC3)c(=O)c2c1	0.32 µM
COc1ccccc1-c1c(C)[nH]c2nc(N)nc(C)c12	> 40 µM (inactive)
CCc1cccc(CC)c1-n1c(SCC(=O)NC(=O)NCc2ccco2)nnc1-c1cccnc1	0.79 µM
O=S(=O)(c1ccccc1C(F)(F)F)N1CCN(Cc2ccc(-n3ccnc3)cc2)CC1	> 40 µM (inactive)
OC1CCC(Nc2nccc(-c3sc(C4CCOCC4)nc3-c3ccc(F)c(F)c3)n2)CC1 (centres undefined)	4 µM
COc1ccc(CN(C)Cc2ccncc2)cc1-c1ccc(S(=O)(=O)NC2CCC2)s1	20 µM
Cc1cc(=O)n2nc(Oc3ccc(C#N)cc3Cl)sc2n1	0.32 µM

Now from value to compound:

IC50	Compound
3.2 µM	O=C(Nc1ccc(Br)cn1)c1ccc(Cn2cnc([N+](=O)[O-])n2)cc1
0.16 µM	CCCCc1cc(Nc2cc(C3CCC3)[nH]n2)nc(N2CCC2C(N)=O)n1 (centres undefined)
20 µM	CCC(=O)N1N=C(c2ccc3c(c2)CCCC3)Sc2c1ncn2C(=O)CC
0.79 µM	CCn1c(-c2nonc2N)nc2c([C@@H](C)O)ncc(O[C@H](CN)c3ccccc3)c21
13 µM	O=C(CN(Cc1ccccn1)Cc1ccccn1)NC1Cc2ccccc2C1
> 40 µM (inactive)	C=CCOCC1Cn2nc([N+](=O)[O-])nc2O1 (centres undefined)
0.25 µM	CNC(=O)C1Cc2ccccc2N1C(=O)Cc1ccc(F)cc1 (centres undefined)
4 µM	CCc1cc(C(=O)Nc2nccn2-c2ccccc2)cs1
> 40 µM (inactive)	CCCCN(C(=O)c1ccc(NC(=O)C(C)C)cc1)c1ccccc1
1 µM	CCc1ccc2nc(NC(=O)c3cc(N4CCOCC4)ccn3)sc2c1
0.5 µM	CNC(=O)C1Cc2ccccc2N1C(=O)Cc1ccc(OC)cc1 (centres undefined)
0.63 µM	COc1ccc(CN2C(=O)C(O)(CC(=O)c3ccncc3)c3cc(Br)ccc32)cc1OC (centres undefined)
1 µM	CCc1cccc(CC)c1-n1c(SCC(=O)N2CC(=O)Nc3ccccc32)nnc1-c1cccnc1
1.6 µM	Cc1ccc(S(C)(=O)=O)cc1Nc1nccc(-c2sc(N)nc2-c2ccccc2)n1
10 µM	Cc1ccc(NC(C)C(=O)Nc2ccc(C#N)cc2)cc1S(=O)(=O)N1CCCCC1 (centres undefined)
1 µM	c1ccc2[nH]c(-c3ccc(N4CCCC4)nc3)nc2c1
13 µM	O=C(Nc1ccc(Br)c(Cl)c1)Nc1ccc2c(c1)OCO2
0.79 µM	C[C@@H](Oc1cc(-n2cnc3ccc(CC(O)CO)cc32)sc1C(N)=O)c1ccccc1Cl (some centres undefined)
0.63 µM	O=C(Nc1nc(-c2ccccn2)cs1)c1ccc(S(=O)(=O)N2CCCCC2)cc1
3.2 µM	COc1ccc(S(=O)(=O)NCc2ccc(-c3ccc(CN(C)CCO)cc3)cc2)cc1

IC50	Compound
> 40 µM (inactive)	Cc1ccc2c(c1)-c1onc(C(=O)N3CCCCC3c3cccnc3)c1CO2 (centres undefined)
5 µM	CN(C)CCN(C)Cc1ccc(F)cc1NS(=O)(=O)c1ccc(Cl)c(Cl)c1
> 40 µM (inactive)	O=C(NCCc1ccccc1Cl)c1cccn1-c1cccnc1
0.2 µM	CS(=O)(=O)c1ccc(Nc2nccc(-c3cnn4ncccc34)n2)cc1
6.3 µM	Cc1nn(-c2nc(N)nc(-c3ccccn3)n2)c(C)c1Cc1ccccc1
> 40 µM (inactive)	Cc1cc2cncn2c(C2CCCCN2C(=O)c2cccs2)n1 (centres undefined)
0.13 µM	Cc1cc2nc(N3CC[C@H]3C(N)=O)nc(Nc3cc(C4CC4)[nH]n3)c2s1
0.016 µM	CS(=O)(=O)N1CCC(Nc2ncc(Br)c(Nc3cccc(F)c3C(N)=O)n2)CC1
7.9 µM	CCCc1cc(N)nc(-c2cc(CCC)cc(N)n2)c1
6.3 µM	c1ccc(-c2nc(NCc3ccco3)c3ccccc3n2)nc1
0.32 µM	NS(=O)(=O)c1ccc(Nc2ncc3cccc(OC4CCNCC4)c3n2)cc1
0.25 µM	CC(C)S(=O)(=O)c1ccc(-c2cnc(N)c3cc(-c4ccnc(N)n4)ccc23)cc1
> 40 µM (inactive)	Clc1ccc(C(CC2CCCCO2)Cn2cncn2)c(Cl)c1 (centres undefined)
1.6 µM	Oc1c(-c2n[nH]c(CCc3ccccc3)n2)ncc2cccnc12
16 µM	CCc1nn(-c2ncc(F)c(NC(C)C)n2)c(N)c1C1CCCCC1
20 µM	COc1cccc(C(=O)[C@H]2C[C@@H]2CN(Cc2ccccn2)Cc2ccccn2)c1
> 40 µM (inactive)	CN(Cc1nnnn1C1CCN(Cc2ccc(-n3ccnc3)cc2)CC1)c1ccc(F)cc1F
25 µM	CN(Cc1cccnc1)Cc1ccc(N2CCN(C(=O)C3(c4ccc(Cl)cc4)CC3)CC2)nc1
> 50 µM (inactive)	O=C(c1cccc(Nc2ncc(-c3ccc4c(c3)OCO4)cn2)c1)N1CCOCC1

From PubChem BioAssay AID1159562 (GlaxoSmithKline (GSK), 2015)
